According to patent US20260158102A1, “CYCLIC PEPTIDE DERIVATIVE COMPOSITION FOR TREATING OR PREVENTING NEUROPATHIC PAIN AND/OR INFLAMMATORY PAIN” (DKS Co. Ltd., priority 2022, published 2026):

Experiments:
[1] = Observation of general condition in rat STZ-induced diabetes model; format: in vivo; details: number of animals, 10 per group
Description: (§1) Compound 9 (50 mg/mL) was diluted with water for injection to obtain a 1 mg/mL administration specimen. For the specimens to be administered at 0.1 mg/mL and 0.01 mg/mL, the specimen to be administered at 1 mg/mL was diluted stepwise with water for injection. Each administration specimen was divided into PP disposable tubes every day and stored in a storehouse (freezer: MDF-MU339H-PJ, PHC Corporation) under the condition of freezing (−30° C. to −20° C., measured value: −26.4 to −24.5° C.). Preparation was performed on the day before the start of administration.
(§2) Water for injection was added to and dissolved in Pregabalin taken out from the capsule to obtain 2 mg/mL. It was prepared before use.
(§3) • Animal species: rat (SPF) • Strain: Crl: CD (SD) • Date of animal acquisition, gender, age in weeks, number of animals acquired, and weight range after 1 day of acquisition • First and second courses: Apr. 6, 2022, male, 7 weeks old, 35 animals, 217 to 237 g • Third and fourth courses: Apr. 13, 2022, male, 7 weeks old, 35 animals, 216 to 235 g • Source: […].
(§4) • Dose volume: calculated at 2 mL/kg based on the body weight on the day of administration. • Number of times of administration: once • Day of administration: 7 days before the day of starting administration of the test substance.
(§5) • Dose volume: calculated at 1 mL/kg based on the body weight on the day of administration. • Number of times of administration: 9 times • Interval of administration: once every 3 days (evaluation was performed on the day after administration) • Day of starting administration: day 8 of STZ administration (day of STZ administration is counted as day 1).
(§6) • Dose volume: calculated at 10 mL/kg based on the body weight on the day of administration. • Number of times of administration: Administration was performed once on the day of evaluation of neuropathic pain, twice in total, and on the other days of administration, a vehicle for a control substance (water for injection) was orally administered.
• Observation of general condition • Observation was performed once a day.

[2] = Measurement of blood glucose level in rat STZ-induced diabetes model; format: in vivo; details: mean ± SE
Description: as §1, §2, §3, §4, §5, §6
On days 7 and 35 of STZ administration, about 50 μL of blood was collected from the tail vein using a winged injection needle (Terumo Corporation) equipped with a heparinized capillary (DRUMMOND […]).
The blood obtained above was centrifuged [centrifugal conditions: 4° C., 3,000 rpm (×2,150 g), 15 min] with a centrifuge (CF 9RX, Hitachi Koki Co., Ltd.) to obtain plasma. Blood glucose levels of a part of plasma obtained by blood collection on day 7 and day 35 after STZ administration were measured by hexokinase G-6 PDH method (L-type Wako Glu2, FUJIFILM Wako Pure Chemical Corporation) using a biochemical automatic analyzer (AU480, Beckman Coulter, Inc.). […] The plasma after the measurement was discarded.
The mean and standard error of each group were calculated for the 50% withdrawal threshold, body weight, and blood glucose level.
The body weight was an integer.
No significant difference test of body weight and blood glucose levels was performed.

[3] = 0.01 mg/kg iv, day 35 of STZ administration
[4] = 0.1 mg/kg iv, day 35 of STZ administration
[5] = 1 mg/kg iv, day 35 of STZ administration

## CC[C@@]1(C)Oc2cc(ccc2O)C[C@H](NC)C(=O)N[C@@H](C(C)C)C(=O)N[C@@H]1C(=O)N[C@@H](CC(=O)O)C(=O)O [Compound 9]
[1]; 0.01 mg/kg iv, day 1 of STZ administration
  general condition: 10
[1]; 0.01 mg/kg iv, day 2 of STZ administration
  general condition: 10
[1]; 0.01 mg/kg iv, day 3 of STZ administration
  general condition: 10
[1]; 0.01 mg/kg iv, day 4 of STZ administration
  general condition: 10
[1]; 0.01 mg/kg iv, day 5 of STZ administration
  general condition: 10
[1]; 0.01 mg/kg iv, day 6 of STZ administration
  general condition: 10
[1]; 0.01 mg/kg iv, day 7 of STZ administration
  general condition: 10
[1]; 0.01 mg/kg iv, day 8 of STZ administration
  general condition: 10
[1]; 0.01 mg/kg iv, day 9 of STZ administration
  general condition: 10
[1]; 0.01 mg/kg iv, day 10 of STZ administration
  general condition: 10
[1]; 0.01 mg/kg iv, day 11 of STZ administration
  general condition: 10
[1]; 0.01 mg/kg iv, day 12 of STZ administration
  general condition: 10
[1]; 0.01 mg/kg iv, day 13 of STZ administration
  general condition: 10
[1]; 0.01 mg/kg iv, day 14 of STZ administration
  general condition: 10
[1]; 0.01 mg/kg iv, day 15 of STZ administration
  general condition: 10
[1]; 0.01 mg/kg iv, day 16 of STZ administration
  general condition: 10
[1]; 0.01 mg/kg iv, day 17 of STZ administration
  general condition: 10
[1]; 0.01 mg/kg iv, day 18 of STZ administration
  general condition: 10
[1]; 0.01 mg/kg iv, day 19 of STZ administration
  general condition: 10
[1]; 0.01 mg/kg iv, day 20 of STZ administration
  general condition: 10
[1]; 0.01 mg/kg iv, day 21 of STZ administration
  general condition: 10
[1]; 0.01 mg/kg iv, day 22 of STZ administration
  general condition: 10
[1]; 0.01 mg/kg iv, day 23 of STZ administration
  general condition: 10
[1]; 0.01 mg/kg iv, day 24 of STZ administration
  general condition: 10
[1]; 0.01 mg/kg iv, day 25 of STZ administration
  general condition: 10
[1]; 0.01 mg/kg iv, day 26 of STZ administration
  general condition: 10
[1]; 0.01 mg/kg iv, day 27 of STZ administration
  general condition: 10
[1]; 0.01 mg/kg iv, day 28 of STZ administration
  general condition: 10
[1]; 0.01 mg/kg iv, day 29 of STZ administration
  general condition: 10
[1]; 0.01 mg/kg iv, day 30 of STZ administration
  general condition: 10
[1]; 0.01 mg/kg iv, day 31 of STZ administration
  general condition: 10
[1]; 0.01 mg/kg iv, day 32 of STZ administration
  general condition: 10
[1]; 0.01 mg/kg iv, day 33 of STZ administration
  general condition: 10
[1]; 0.01 mg/kg iv, day 34 of STZ administration
  general condition: 10
[1]; [3]
  general condition: 10
[1]; 0.1 mg/kg iv, day 1 of STZ administration
  general condition: 10
[1]; 0.1 mg/kg iv, day 2 of STZ administration
  general condition: 10
[1]; 0.1 mg/kg iv, day 3 of STZ administration
  general condition: 10
[1]; 0.1 mg/kg iv, day 4 of STZ administration
  general condition: 10
[1]; 0.1 mg/kg iv, day 5 of STZ administration
  general condition: 10
[1]; 0.1 mg/kg iv, day 6 of STZ administration
  general condition: 10
[1]; 0.1 mg/kg iv, day 7 of STZ administration
  general condition: 10
[1]; 0.1 mg/kg iv, day 8 of STZ administration
  general condition: 10
[1]; 0.1 mg/kg iv, day 9 of STZ administration
  general condition: 10
[1]; 0.1 mg/kg iv, day 10 of STZ administration
  general condition: 10
[1]; 0.1 mg/kg iv, day 11 of STZ administration
  general condition: 10
[1]; 0.1 mg/kg iv, day 12 of STZ administration
  general condition: 10
[1]; 0.1 mg/kg iv, day 13 of STZ administration
  general condition: 10
[1]; 0.1 mg/kg iv, day 14 of STZ administration
  general condition: 10
[1]; 0.1 mg/kg iv, day 15 of STZ administration
  general condition: 10
[1]; 0.1 mg/kg iv, day 16 of STZ administration
  general condition: 10
[1]; 0.1 mg/kg iv, day 17 of STZ administration
  general condition: 10
[1]; 0.1 mg/kg iv, day 18 of STZ administration
  general condition: 10
[1]; 0.1 mg/kg iv, day 19 of STZ administration
  general condition: 10
[1]; 0.1 mg/kg iv, day 20 of STZ administration
  general condition: 10
[1]; 0.1 mg/kg iv, day 21 of STZ administration
  general condition: 10
[1]; 0.1 mg/kg iv, day 22 of STZ administration
  general condition: 10
[1]; 0.1 mg/kg iv, day 23 of STZ administration
  general condition: 10
[1]; 0.1 mg/kg iv, day 24 of STZ administration
  general condition: 10
[1]; 0.1 mg/kg iv, day 25 of STZ administration
  general condition: 10
[1]; 0.1 mg/kg iv, day 26 of STZ administration
  general condition: 10
[1]; 0.1 mg/kg iv, day 27 of STZ administration
  general condition: 10
[1]; 0.1 mg/kg iv, day 28 of STZ administration
  general condition: 10
[1]; 0.1 mg/kg iv, day 29 of STZ administration
  general condition: 10
[1]; 0.1 mg/kg iv, day 30 of STZ administration
  general condition: 10
[1]; 0.1 mg/kg iv, day 31 of STZ administration
  general condition: 10
[1]; 0.1 mg/kg iv, day 32 of STZ administration
  general condition: 10
[1]; 0.1 mg/kg iv, day 33 of STZ administration
  general condition: 10
[1]; 0.1 mg/kg iv, day 34 of STZ administration
  general condition: 10
[1]; [4]
  general condition: 10
[1]; 1 mg/kg iv, day 1 of STZ administration
  general condition: 10
[1]; 1 mg/kg iv, day 2 of STZ administration
  general condition: 10
[1]; 1 mg/kg iv, day 3 of STZ administration
  general condition: 10
[1]; 1 mg/kg iv, day 4 of STZ administration
  general condition: 10
[1]; 1 mg/kg iv, day 5 of STZ administration
  general condition: 10
[1]; 1 mg/kg iv, day 6 of STZ administration
  general condition: 10
[1]; 1 mg/kg iv, day 7 of STZ administration
  general condition: 10
[1]; 1 mg/kg iv, day 8 of STZ administration
  general condition: 10
[1]; 1 mg/kg iv, day 9 of STZ administration
  general condition: 10
[1]; 1 mg/kg iv, day 10 of STZ administration
  general condition: 10
[1]; 1 mg/kg iv, day 11 of STZ administration
  general condition: 10
[1]; 1 mg/kg iv, day 12 of STZ administration
  general condition: 10
[1]; 1 mg/kg iv, day 13 of STZ administration
  general condition: 10
[1]; 1 mg/kg iv, day 14 of STZ administration
  general condition: 10
[1]; 1 mg/kg iv, day 15 of STZ administration
  general condition: 10
[1]; 1 mg/kg iv, day 16 of STZ administration
  general condition: 10
[1]; 1 mg/kg iv, day 17 of STZ administration
  general condition: 10
[1]; 1 mg/kg iv, day 18 of STZ administration
  general condition: 10
[1]; 1 mg/kg iv, day 19 of STZ administration
  general condition: 10
[1]; 1 mg/kg iv, day 20 of STZ administration
  general condition: 10
[1]; 1 mg/kg iv, day 21 of STZ administration
  general condition: 10
[1]; 1 mg/kg iv, day 22 of STZ administration
  general condition: 10
[1]; 1 mg/kg iv, day 28 of STZ administration
  general condition: 10
[1]; 1 mg/kg iv, day 29 of STZ administration
  general condition: 10
[1]; 1 mg/kg iv, day 30 of STZ administration
  general condition: 10
[1]; 1 mg/kg iv, day 31 of STZ administration
  general condition: 10
[1]; 1 mg/kg iv, day 32 of STZ administration
  general condition: 10
[1]; 1 mg/kg iv, day 33 of STZ administration
  general condition: 10
[1]; 1 mg/kg iv, day 34 of STZ administration
  general condition: 10
[1]; [5]
  general condition: 10
[2]; 0.01 mg/kg iv group, day 7 of STZ administration (before start of dosing)
  Blood glucose level, Glu: 581.8 ± 18.5 mg/dL
[2]; [3]
  Blood glucose level, Glu: 623.6 ± 22.0 mg/dL
[2]; 0.1 mg/kg iv group, day 7 of STZ administration (before start of dosing)
  Blood glucose level, Glu: 576.3 ± 15.5 mg/dL
[2]; [4]
  Blood glucose level, Glu: 608.4 ± 32.7 mg/dL
[2]; 1 mg/kg iv group, day 7 of STZ administration (before start of dosing)
  Blood glucose level, Glu: 562.7 ± 14.7 mg/dL
[2]; [5]
  Blood glucose level, Glu: 605.6 ± 18.9 mg/dL
